Data on 25 compounds can be found in ChEMBL document CHEMBL3046840, “Cyclobutane carboxamide inhibitors of fungal melanin: biosynthesis and their evaluation as fungicides” (Bioorg Med Chem, 2000).

pKi: −log10 of the molar value.

Broadly, the pKi is the Ki on a negative log10 scale, so that one unit is a factor of ten. Low values mean a high Ki, high ones a low Ki.

The assay addresses T1, Scytalone dehydratase (Magnaporthe oryzae (strain 70-15 / FGSC 8958) (Rice blast fungus)(Pyricularia oryzae), UniProt P56221).
T1 sequence (P56221 whole entry): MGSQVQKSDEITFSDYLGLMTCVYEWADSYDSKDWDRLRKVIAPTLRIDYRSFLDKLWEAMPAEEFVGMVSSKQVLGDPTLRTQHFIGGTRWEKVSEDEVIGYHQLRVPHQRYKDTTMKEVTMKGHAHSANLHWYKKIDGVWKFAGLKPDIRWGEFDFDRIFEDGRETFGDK

The compound `C[C@@H](NC(=O)[C@]1(C(F)(F)F)C[C@@](C)(Cl)C1)c1ccc(Cl)cc1Cl` had a pKi of 10.96.

Compound `C[C@H](COc1cc(F)ccc1Cl)NC(=O)[C@]1(C)C[C@](C)(Cl)C1` showed a pKi of 10.24. This pKi is 0.72 log units lower than that of the compound before.

Regarding `C[C@H](COc1ccccc1F)NC(=O)[C@]1(C(F)(F)F)C[C@@](C)(Cl)C1`, the pKi is 9.46.

`C[C@@H](NC(=O)C1CCC1)c1ccc(Br)cc1` gave a pKi of 6.28.

`C[C@@H](NC(=O)[C@H]1C[C@@](C)(Cl)C1)c1ccc(Br)cc1`: the pKi is 7.36. This pKi is 1.08 log units higher than that of the compound before.

On to `C[C@@H](NC(=O)C1(Cl)CC(Cl)(Cl)C1)c1ccc(Br)cc1`, for which the pKi was 9.35.

With `C[C@@H](NC(=O)C1(C)CC(F)(F)C1)c1ccc(Br)cc1`, the pKi is 8.22.

With `C[C@@H](NC(=O)[C@]1(C)C[C@](C)(Cl)C1)c1ccc(Br)cc1`, the pKi was 10.00.

In the case of `C[C@@H](NC(=O)[C@]1(C)C[C@](Cl)(CCl)C1)c1ccc(Br)cc1`, the pKi was 10.57.

Take `C[C@@H](NC(=O)[C@]1(C)C[C@@](Cl)(CCl)C1)c1ccc(Br)cc1`: the pKi is 10.80.

Compound `CC[C@]1(C(=O)N[C@H](C)c2ccc(Br)cc2)C[C@@](C)(Cl)C1` showed a pKi of 10.68.

Compound `C[C@@H](NC(=O)[C@]1(C)C[C@](C)(O)C1)c1ccc(Br)cc1` had a pKi of 6.32. Against the preceding compound, the pKi is 4.36 log units lower.

For `C[C@@H](NC(=O)[C@]1(C)C[C@@](C)(O)C1)c1ccc(Br)cc1`, the pKi is 7.80.

For `C#C[C@]1(O)C[C@@](C)(C(=O)N[C@H](C)c2ccc(Br)cc2)C1`, the pKi is 7.55.

The compound `CC[C@]1(O)C[C@@](C)(C(=O)N[C@H](C)c2ccc(Br)cc2)C1` had a pKi of 8.49.

Regarding `C[C@@H](NC(=O)[C@]1(C)C[C@](C)(Cl)C1)c1ccc(Cl)cc1Cl`, the pKi is 10.92.

In the case of `C[C@@H](NC(=O)[C@]1(C)C[C@](C)(Cl)C1)c1cccc2ccccc12`, the pKi was 8.49. This pKi lies 2.43 log units lower than the previous one.

In the case of `C[C@@H](NC(=O)[C@]1(C)C[C@](C)(Cl)C1)c1ccc2ccccc2c1`, the pKi is 10.80. Compared with the last compound, the pKi is 2.31 log units higher.

As for `C[C@H](COc1cc(F)ccc1F)NC(=O)[C@]1(C)C[C@](C)(Cl)C1`, the pKi is 9.38. Compared with the last compound, the pKi is 1.42 log units lower.

With `C[C@@H](NC(=O)[C@]1(C(F)(F)F)C[C@@](C)(Cl)C1)c1ccc(Br)cc1`, the pKi was 9.37.

Take `C[C@@H](NC(=O)[C@]1(C(F)(F)F)C[C@@](C)(Cl)C1)c1ccc(Cl)cc1`: the pKi was 10.17. This pKi is 0.80 log units higher than that of the compound before.

`CC(C)C(C)(C#N)NC(=O)[C@H](C)Oc1ccc(Cl)cc1Cl` (stereo not given in full) had a pKi of 9.89.

Compound `C[C@@H](NC(=O)C1(Cl)CC(C)(Cl)C1)c1ccc(Br)cc1` (mixture of isomers) showed a pKi of 9.51.

Regarding `COc1cc(Br)ccc1C(C)NC(=O)[C@]1(C)C[C@](C)(Cl)C1` (mixture of isomers), the pKi was 10.52.

`C[C@@H](NC(=O)C(C#N)C(C)(C)C)c1ccc(Cl)cc1Cl` (stereo not given in full) [DICLOCYMET] had a negative-log Ki (pKi) of 10.44.
